The record followed here is patent publication US10501460B2, “Heterocyclic compounds and uses thereof” (Plexxikon Inc., priority 2013, dated 2019).

By IC50 is commonly meant the point on the concentration scale where inhibition reaches its midpoint. Low readings indicate greater potency in that assay, high ones weaker potency in that assay.

Assay [1] relates to bromodomain. As to the kind of experiment: Bromodomain cell assays of Example 40 (at least one of them). The class given is cell-based. Conditions: in at least one of the bromodomain cell assays described in Example 40. The text has this:
(§1) Published bromodomain inhibitors JQ1 and iBET 151 have shown activity in variety of cancer cells such leukemia and lymphoma, multiple myeloma cells, NUT midline carcinoma and glioblastoma cells (Dawson M A et al. 2011; Delmore J E 2011; Chen Z et al. 2013; Filippakopoulos P et al. 2010; Mertz J A et al. 2011; Ott C J et al. 2012). In this study, we test compounds in different cancer cell lines. MV-4-11 and MOLM-13 are AML cell lines harboring a MLL-AF4 and MLL-AF9 translocation, respectively. MM.1S is a multiple myeloma cell line. SK-N-AS, IMR-32 and SK-N-BE(2) are neuroblastoma cell lines. IMR-32 and SK-N-BE(2) cell lines harbor MYCN amplifications. MV-4-11, MM.1S, IMR-32, SK-N-AS and SK-N-BE(2) were obtained from ATCC (IL, USA) and MOLM-13 were purchased from DSMZ (Braunschweig, German). Cells are cultured as recommended by their sources. For growth inhibition studies 3000 cells are seeded in wells of a 96-well plate in 75 μL of culture media. After several hours, growth media containing compounds of formula (I) are added to the wells. Compound at a maximal concentration of 5 mM was serially diluted 1:3 for a total of 8 point titration with DMSO as a control. A 1 μL aliquot of each dilution point is added to 249 μL growth media and 75 μL is added to each well containing cells, providing 10 μM compound at the maximum concentration point. The final concentration of DMSO in all wells is 0.2%. Cells are incubated for 72 hours, and 25 μL of CellTiter Glo Reagent (Promega Ga., USA) is added to each well. Plates are shaken for approximately 10 minutes and chemiluminescent signal is read on Tecan microplate reader. The measured luminescence correlates directly with cell number.
(§2) All data is normalized to the mean of eight DMSO high control wells on each plate. A four parameter curve fit of the following formula was then applied: Y=a+(b−a)/(1+(x/c)^d) Where ‘a’ is the minimum, ‘b’ is the maximum, ‘c’ is the pIC50 and ‘d’ is the Hill slope. […] Myc Reporter Assay
In MV-4-11 cells, BRD2, BRD3 and BRD4 bind to the promoter region of MYC and regulate its transcription (Dawson M A et al. 2011). The literature bromodomain inhibitor iBET 151 could disrupt BRD4 recruitment to the MYC promoter and subsequently downregulate c-myc transcription (Dawson M A et al. 2011). Myc protein is a transcription factor that heterodimerizes with an obligatory partner Max and regulates the transcription of genes important for cell proliferation, differentiation, and apoptosis. This Myc reporter assay is used to monitor the inhibitory effect of compound of formula (I) on Myc dependent gene expression. Effective compounds could have potential therapeutic effects in Myc-driven tumors.
The MV-4-11 Myc reporter cell line is established by infecting MV-4-11 with VSV-g pseudotyped lentivirus expressing the firefly luciferase gene under the control of a minimal (m) CMV promoter and tandem repeats of the E-box transcriptional response element (TRE) (Qiagen IL, USA) and selecting cells in […] Puromycin.
The MV-4-11 Myc reporter cell line is maintained in Iscove's Modified Dulbecco's Medium containing 10% FBS, 1% PenStep and 2.5 μg/ml Puromycin. Cells are incubated at 37° C. in a humidified atmosphere with 5% CO2. 25,000 cells are seeded in 96-well plate in 50 μL of culture media. After several hours, growth media containing 2× compounds are added to the wells. Compound at a maximal concentration of 5 mM is serially diluted 1:3 for a total of 8 point titration. A 1 μl aliquot of each dilution point is added to 249 μl growth media and 50 μl is added to each well containing cells, providing 10 μM compound at the maximum concentration point. DMSO treated cells serve as a high control and 10 μM JQ1 treated cells serve as a low control. Cells are incubated for a further 24 hours and 25 μL of CellTiter-Fluo Reagent (Promega Ga., USA) is added to each well. Plates are shaken for approximately 2 minutes and incubated at 37° C. for 0.5 hour. […]

Assay [2] deals with MV-4-11. The assay can be described thus: Oncology cell growth assay MV-4-11 (CellTiter Glo, 72 hours). The assay is classed as cell-based. Conditions: Homo sapiens, MV4-11, 72 h; MV-4-11 cell growth inhibitory activity, 3d.
Source text: as §1, §2
The following table provides data indicating the BRD4 biochemical inhibitory activity and MV-4-11 cell growth inhibitory activity for exemplary compounds as described herein.
For orientation: Cellular ATP, detected with luciferase, serves as a proxy for viable cell number.

On to `Cc1noc(C)c1-c1cnc2c(-c3cnn(C)c3)cn(Cc3cccnc3)c2c1` [P-0195, 3,5-dimethyl-4-[3-(1-methylpyrazol-4-yl)-1-(3-pyridylmethyl)pyrrolo[3,2-b]pyridin-6-yl]isoxazole], for which the values for the IC50 in assay [1] and in assay [2] were under 10 µM and at most 1 µM, respectively. Taken in the same sequence, the figures for `Cc1noc(C)c1-c1cnc2c(-c3cnn(C)c3)cn(CC3CC(F)(F)C3)c2c1` [P-0213, 4-[1-[(3,3-difluorocyclobutyl)methyl]-3-(1-methylpyrazol-4-yl)pyrrolo[3,2-b]pyridin-6-yl]-3,5-dimethyl-isoxazole] were under 10 µM and at most 1 µM. Taken in the same sequence, the figures for `Cc1noc(C)c1-c1cnc2[nH]cc(C(O)c3c(F)cccc3Cl)c2c1` (centres unmarked) [P-0021, (2-chloro-6-fluoro-phenyl)-[5-(3,5-dimethylisoxazol-4-yl)-1H-pyrrolo[2,3-b]pyridin-3-yl] methanol] were under 10 µM and at most 1 µM.

Regarding `Cc1noc(C)c1-c1cnc2[nH]cc(Cc3ccccc3OC(F)F)c2c1` [P-0047, 4-[3-[[2-(difluoromethoxy)phenyl]methyl]-1H-pyrrolo[2,3-b]pyridin-5-yl]-3,5-dimethyl-isoxazole], the values for the IC50 in assay [1] and in assay [2] were under 10 µM and 1 to 10 µM, respectively. In the case of `[2H]C([2H])(C1CC(F)(F)C1)n1cc(-c2cnn(C)c2)c2ncc(-c3c(C)noc3C)cc21` [P-0214, 4-[1-[dideuterio-(3,3-difluorocyclobutyl)methyl]-3-(1-methylpyrazol-4-yl)pyrrolo[3,2-b]pyridin-6-yl]-3,5-dimethyl-isoxazole], the half-maximal inhibitory concentration (IC50) in assay [1] is under 10 µM; in assay [2], at most 1 µM. Take `Cc1noc(C)c1-c1cnc2c(c1)c(CC1CCN(S(=O)(=O)c3ccccc3)CC1)cn2C` [P-0113, 4-[3-[[1-(benzenesulfonyl)-4-piperidyl]methyl]-1-methyl-pyrrolo[2,3-b]pyridin-5-yl]-3,5-dimethyl-isoxazole]: the figures for the concentration for half-maximal inhibition (IC50) in assay [1] and in assay [2] were under 10 µM and 1 to 10 µM, respectively.

Turning to `Cc1noc(C)c1-c1cnc2c(-c3cnn(C)c3)cn(C(C(=O)NC3CC3)c3ccccc3)c2c1` (centres unmarked) [P-0207, N-cyclopropyl-2-[6-(3,5-dimethylisoxazol-4-yl)-3-(1-methylpyrazol-4-yl)pyrrolo[3,2-b]pyridin-1-yl]-2-phenyl-acetamide], the concentration for half-maximal inhibition (IC50) is under 10 µM in assay [1] and at most 1 µM in assay [2]. Consider `Cc1noc(C)c1-c1cnc2[nH]cc(S(=O)(=O)c3ccccc3)c2c1` [P-0145, 4-[3-(benzenesulfonyl)-1H-pyrrolo[2,3-b]pyridin-5-yl]-3,5-dimethyl-isoxazole], for which the figures for the IC50 in assay [1] and in assay [2] were under 10 µM and at most 1 µM, respectively. For `COc1ncc(-c2cn(S(=O)(=O)c3ccccc3)c3cc(-c4c(C)noc4C)cnc23)cn1` [P-0104, 4-[1-(benzenesulfonyl)-3-(2-methoxypyrimidin-5-yl)pyrrolo[3,2-b]pyridin-6-yl]-3,5-dimethyl-isoxazole] the same measures were under 10 µM and 1 to 10 µM. On to `CCn1cc(-c2cn(C(C)c3ccccc3)c3cc(-c4c(C)noc4C)cnc23)cn1` (centres unmarked) [P-0200, 4-[3-(1-ethylpyrazol-4-yl)-1-(1-phenylethyl)pyrrolo[3,2-b]pyridin-6-yl]-3,5-dimethyl-isoxazole], for which the concentration for half-maximal inhibition (IC50) in assay [1] is under 10 µM; in assay [2] it was at most 1 µM. Taken in the same sequence, the figures for `Cc1noc(C)c1-c1cnc2ccn(S(=O)(=O)C3CCCCC3)c2c1` [P-0066, 4-(1-cyclohexylsulfonylpyrrolo [3,2-b]pyridin-6-yl)-3,5-dimethyl-isoxazole] were under 10 µM and at most 1 µM. For `Cc1noc(C)c1-c1cnc2[nH]cc(Cc3ccccc3Cl)c2c1` [P-0026, 4-[3-[(2-chlorophenyl)methyl]-1H-pyrrolo[2,3-b]pyridin-5-yl]-3,5-dimethyl-isoxazole] the same measures were under 10 µM and 1 to 10 µM.

Consider `Cc1noc(C)c1-c1cnc2c(-c3cnn(C)c3)cn(S(=O)(=O)C3CCCC3)c2c1` [P-0112, 4-[1-cyclopentylsulfonyl-3-(1-methylpyrazol-4-yl)pyrrolo[3,2-b]pyridin-6-yl]-3,5-dimethyl-isoxazole], for which the half-maximal inhibitory concentration (IC50) in assay [1] is under 10 µM; in assay [2] it was at most 1 µM. Taken in the same sequence, the figures for `Cc1noc(C)c1-c1cnc2c(C#CCF)cn(S(=O)(=O)C3CCCC3)c2c1` [P-0158, 4-[1-cyclopentylsulfonyl-3-(3-fluoroprop-1-ynyl)pyrrolo[3,2-b]pyridin-6-yl]-3,5-dimethyl-isoxazole] were under 10 µM and at most 1 µM. Regarding `Cc1noc(C)c1-c1cnc2c(-c3cnn(C)c3)cn(Cc3ccccc3C(F)(F)F)c2c1` [P-0188, 3,5-dimethyl-4-[3-(1-methylpyrazol-4-yl)-1-[[2-(trifluoromethyl)phenyl]methyl]pyrrolo[3,2-b]pyridin-6-yl]isoxazole], the IC50 in assay [1] was under 10 µM; in assay [2], at most 1 µM. On to `Cc1noc(C)c1-c1cnc2c(-c3cnn(C4CC4)c3)cn(C(C)c3ccccc3)c2c1` (centres unmarked) [P-0216, 4-[3-(1-cyclopropylpyrazol-4-yl)-1-(1-phenylethyl)pyrrolo[3,2-b]pyridin-6-yl]-3,5-dimethyl-isoxazole], for which the IC50 is under 10 µM in assay [1] and at most 1 µM in assay [2]. For `Cc1noc(C)c1-c1cnc2[nH]cc(Cc3c(F)cccc3Cl)c2c1` [P-0027, 4-[3-[(2-chloro-6-fluoro-phenyl)methyl]-1H-pyrrolo [2,3-b]pyridin-5-yl]-3,5-dimethyl-isoxazole] the same measures were under 10 µM and 1 to 10 µM. For `Cc1noc(C)c1-c1cnc2c(CC3CC3)cn(S(=O)(=O)C3CCCCC3)c2c1` [P-0075, 4-[1-cyclohexylsulfonyl-3-(cyclopropylmethyl)pyrrolo [3,2-b]pyridin-6-yl]-3,5-dimethyl-isoxazole] the same measures were under 10 µM and 1 to 10 µM.

In assay [2], `Cc1noc(C)c1-c1cnc2c(-c3cnn(C(F)F)c3)cn(C(C)c3ccccc3)c2c1` (centres unmarked) [P-0177, 4-[3-[1-(difluoromethyl)pyrazol-4-yl]-1-(1-phenylethyl)pyrrolo[3,2-b]pyridin-6-yl]-3,5-dimethyl-isoxazole] yielded an IC50 of at most 1 µM.

For `Cc1noc(C)c1-c1cnc2c(c1)c(Sc1ccccc1)cn2-c1cnn(C)c1` [P-0184, 3,5-dimethyl-4-[1-(1-methylpyrazol-4-yl)-3-phenylsulfanyl-pyrrolo[2,3-b]pyridin-5-yl]isoxazole], the IC50 in assay [2] was at most 1 µM. Still for that read-out and setting: the figure for `Cc1noc(C)c1-c1cnc2[nH]cc(P(=O)(c3ccccc3)c3ccccc3)c2c1` [P-0166, 4-(3-diphenylphosphoryl-1H-pyrrolo[2,3-b]pyridin-5-yl)-3,5-dimethyl-isoxazole] is at most 1 µM; for `Cc1noc(C)c1-c1cnc2c(-c3cnn(C(F)F)c3)cn(S(=O)(=O)C3CCCC3)c2c1` [P-0133, 4-[1-cyclopentylsulfonyl-3-[1-(difluoromethyl)pyrazol-4-yl]pyrrolo [3,2-b]pyridin-6-yl]-3,5-dimethyl-isoxazole] it is at most 1 µM.

In the case of `Cc1noc(C)c1-c1cnc2c(C#CCO)cn(S(=O)(=O)c3ccccc3)c2c1` [P-0155, 3-[1-(benzenesulfonyl)-6-(3,5-dimethylisoxazol-4-yl)pyrrolo[3,2-b]pyridin-3-yl]prop-2-yn-1-ol], the IC50 in assay [2] was at most 1 µM.
